Consider three compounds from US12714688B2, “Margaric acid decreases PIEZ02-mediated pain” (The United States of America, as represented by The …, priority 2020, dated 2026).

Test [1] has as its system PIEZO2-PIEZO1 beam chimera. In words: Whole-cell patch-clamp of N2A^Piezo1−/− cells transfected with Piezo2-Piezo1 beam chimera. Particulars: MA 100 μM 18 h; latrunculin A 1 μM for 1 h. On the technique in general: Patch clamp records ionic current or voltage across a cell membrane.
Description: (§1) Cell culture and electrophysiology: Piezo1 knock-out mouse N2A (N2A^Piezo1−/−) cells were a gift from Dr. Gary R. Lewin, human Merkel cell carcinoma cell line (MCC13 cells; Cell Bank Australia reference number: CBA1338) were obtained from Sigma, and DRG neurons were obtained from sacrificed mice. N2A^Piezo1−/− cells were cultured in Dulbecco's Modified Eagle Medium (DMEM), 5% penicillin streptomycin and 10% fetal bovine serum (FBS); MCC13 cells were cultured in RPMI 1640 (with 2 mM L-glutamine+25 mM HEPES; Sigma), 5% penicillin-streptomycin and 10% FBS and; DRG neurons were cultured in DMEM, 1% penicillin-streptomycin, 1% MEM vitamin solution, 1% L-glutamine, and 10% horse serum. Prior to electrophysiological measurements, N2A^Piezo1−/−, MCC13 and DRG neurons were supplemented overnight (≈18 h) with MA. […] MA was obtained from Nu-Chek Prep, INC. The cultured cells were maintained at 37° C., 95% relative humidity, and 5% CO2.
For whole-cell recordings, the bath solution contained 140 mM NaCl, 6 mM KCl, 2 mM CaCl2), 1 mM MgCl2, 10 mM glucose, and 10 mM HEPES (pH 7.4; 300 mOsm). The pipette solution for voltage-clamp recordings contained: 140 mM CsCl, 5 mM EGTA, 1 mM CaCl2), 1 mM MgCl2, and 10 mM HEPES (pH 7.2); and for current clamp recordings: 140 mM KCl, 6 mM NaCl, 2 mM CaCl2), 1 mM MgCl2, 10 mM glucose, and 10 mM HEPES (pH 7.4; 300 mOsm); MA and bradykinin acetate salt (Sigma) perfused during experiments were dissolved in the bath solution to a final concentration of 300 μM for 2 min, and 1 μM for 5 min respectively; and for long exposure experiments bradykinin was supplemented to the culture medium and added to the cells 18-24 h prior recording. For cytoskeleton disruption experiments, N2A^Piezo1−/− were incubated in media supplemented with 1 μM latrunculin A (Cayman Chemicals) for 1 h prior recordings. […]
During mechanical stimulation, currents were recorded at a constant voltage (−60 mV, voltage-clamp), and voltages were recorded without injecting current (current-clamp). […]
The subject of test [2] is mouse PIEZO2. In words: Whole-cell patch-clamp with mechanical indentation of N2A^Piezo1−/− cells transfected with Piezo2 variant 2 (V2). The settings on record: latrunculin A 1 μM for 1 h.
Description: as §1
For whole-cell recordings, the bath solution contained 140 mM NaCl, 6 mM KCl, 2 mM CaCl2), 1 mM MgCl2, 10 mM glucose, and 10 mM HEPES (pH 7.4; 300 mOsm). The pipette solution for voltage-clamp recordings contained: 140 mM CsCl, 5 mM EGTA, 1 mM CaCl2), 1 mM MgCl2, and 10 mM HEPES (pH 7.2); and for current clamp recordings: 140 mM KCl, 6 mM NaCl, 2 mM CaCl2), 1 mM MgCl2, 10 mM glucose, and 10 mM HEPES (pH 7.4; 300 mOsm); MA and bradykinin acetate salt (Sigma) perfused during experiments were dissolved in the bath solution to a final concentration of 300 μM for 2 min, and 1 μM for 5 min respectively; and for long exposure experiments bradykinin was supplemented to the culture medium and added to the cells 18-24 h prior recording. For cytoskeleton disruption experiments, N2A^Piezo1−/− were incubated in media supplemented with 1 μM latrunculin A (Cayman Chemicals) for 1 h prior recordings. Pipettes were made out of borosilicate glass (Sutter Instruments) and were fire-polished before use until a resistance between 3 and 5 MΩ was reached.
During mechanical stimulation, currents were recorded at a constant voltage (−60 mV, voltage-clamp), and voltages were recorded without injecting current (current-clamp). Both variables were sampled at 100 kHz and low-pass filtered at 10 kHz using a MultiClamp™ 700 B amplifier and Clampex (Molecular Devices, LLC). […] Leak currents before mechanical stimulations were subtracted off-line from the current traces and data were digitally filtered at 2 kHz with ClampFit (Molecular Devices, LLC).
Mechanical stimulation: For indentation assays, N2A^Piezo1−/−, MCC13 DRG neurons, and human iPSC374 derived neurons were mechanically stimulated with a heat-polished blunt glass pipette (3-4 μm) driven by a piezo servo controller (E625, Physik Instrumente). The blunt pipette was mounted on a micromanipulator at an ~45° angle and positioned 3-4 μm above from the cells without indenting them. Displacement measurements were obtained with a square-pulse protocol consisting of 1 μm incremental indentation steps, each lasting 200 ms with a 2-ms ramp in 10-s intervals. The threshold of mechano-activated currents for each experiment was defined as the indentation step that evoked the first current deflection from the baseline.
Test [3] deals with mice. Kind of test: Von Frey test after acute inflammation by topical AITC. The class given is in vivo, mouse. Particulars: topical AITC; saline injected mice; filaments <0.16 g. Here is the method:
Mice behavior: MA solution: MA was prepared in sterile Dulbecco's phosphate buffered saline, with 70 g/L fatty acid free bovine serum albumin (BSA; Sigma), and MA to a final concentration of 5 mM. The solution was filtered to avoid undissolved materials.
Subjects: For the experiment 8-12 weeks old male and female C57B16/J mice (N=12; control n=6; male=3, female=3) MA (n=6; male=3, female=3) per experiment were used. Mice were housed under a 12 hr light dark cycle and granted access to food and water ad libitum.
Treatment: Animals were put in two groups (control and MA) and given injections in the plantar of the left hind paw for 7 days prior behavioral assessment. Injections were given as follows: Mouse is restrained by their tail, foot, and over shoulders scruff. […]
Mechanical threshold (Von Frey test): Punctate mechanical allodynia was measured using Von Frey monofilaments (Stoelting, Inc.) in varying grams of force (0.008-1 g). Animals were placed in small enclosures over a wire mesh and the plantar of the hind paw was poked with a filament and responses were recorded. Withdrawal responses were recorded when the animal lifted, shook, or licked the paw in response to stimulus presentation. […]

In test [4] the test system is mechano-currents from DRG neurons. Particulars: cited from earlier work.

Take `C/C1=C/C(=O)O[C@@H]2C[C@@H](CC[C@H](C)/C=C\C=C\CC1)O[C@@](O)([C@@H]1CSC(=O)N1)C2` [latrunculin A, reference compound]: in test [1], the “modulation of the MA effect on the chimera by latrunculin A” value is “not modulated by latrunculin A treatment”. Besides, the “effect of latrunculin A on PIEZO2 inhibition by MA” value is listed as “enhances PIEZO2 inhibition by MA” in test [2] and “pronounced leftward shift in the MA dose-response profile for PIEZO2” in test [2] (listed as Latrunculin A).

Consider `C=CCN=C=S` [AITC, Allyl isothiocyanate, reference compound], for which, in test [3], the “withdrawal from von Frey filaments caused by AITC” value is “causes mice to withdraw their hind paws from even the lightest von Frey filaments”.

Consider GsMTx-4, for which the inhibition of mechano-currents result in test [4] is reported as “failed to inhibit mechano-currents from DRG neurons”.
